The values that follow come from US20050239806A1, “Pyrrolopyrimidine derivatives and analogs and their use in the treatment and prevention of diseases” (Ambit Biosciences Corporation, priority 2004, published 2005).

Assay [1] has as its target T1, human EGFR (wildtype), EGFR(DKIN) (Homo sapiens, UniProt P00533).
T1 construct: Kd for EGFR(DKIN); made in house
The assay can be described thus: Binding of wildtype-EGFR (T7 phage-displayed kinase competition binding). An excerpt:
(§1) Methods for measuring binding affinities for interactions between small molecules and kinases including FLT3, c-KIT, ABL([…]) [a.k.a. ABL([…])], VEGFR-2 (a.k.a. KDR), and EGFR are described in detail in U.S. application Ser. No. 10/873,835, which is incorporated by reference herein in its entirety. The components of the assays include human kinases expressed as fusions to T7 bacteriophage particles and immobilized ligands that bind to the ATP site of the kinases. […] If the test compound binds the kinase it competes with the immobilized ligand and prevents binding to the solid support. […] The results are read out by quantitating the amount of fusion protein bound to the solid support, which is accomplished by either traditional phage plaque assays or by quantitative PCR (qPCR) using the phage genome as a template. […] The concentration of test molecule that reduces the number of phage bound to the solid support by 50% is equal to the Kd for the interaction between the kinase and the test molecule. Typically, data are collected for twelve concentrations of test compound and, the resultant binding curve is fit to a non-cooperative binding isotherm to calculate Kd. Described in the exemplary assays below is data from binding with varying kinases. […] The term “ND” represents non-determined values. […] The Kd for the interaction between the soluble compound (competitor) molecule and EGFR is equal to the concentration of soluble competitor molecule that causes a 50% reduction in the number of phage recovered in the eluate compared to a control sample lacking soluble competitor.

Assay [2] concerns the target T2, EGFR (E746-A750del) (Homo sapiens, UniProt P00533, DEL746-750).
T2 construct: made in house
Nature of the assay: Binding of mutant-EGFR (phage-displayed kinase competition binding).
Source text: as §1

For assay [3], the target named is T3, EGFR (G719C) (Homo sapiens, UniProt P00533, G719C).
T3 construct: made in house
The assay is described as above.
Source text: as §1

In assay [4] the target is T4, EGFR (G719S) (Homo sapiens, UniProt P00533, G719S).
T4 construct: made in house
The assay is described as above.
Source text: as §1

The target in assay [5] is T5, EGFR (L747-E749del, A750P) (Homo sapiens, UniProt P00533, A750P/DEL747-749).
T5 construct: made in house
Described as above.
Source text: as §1

Assay [6] has as its target T6, EGFR (L747-T751del, Sins) (Homo sapiens, UniProt P00533, DEL747-750/T751S).
T6 construct: made in house
Described as above.
Source text: as §1

The target in assay [7] is T7, EGFR (L747-T752del, P753S) (Homo sapiens, UniProt P00533, DEL747-752/P753S).
T7 construct: made in house
The assay is described as above.
Source text: as §1

Assay [8] concerns the target T8, EGFR (L858R) (Homo sapiens, UniProt P00533, L858R).
T8 construct: made in house
Described as above.
Source text: as §1

In assay [9] the target is T9, EGFR (L861Q) (Homo sapiens, UniProt P00533, L861Q).
T9 construct: made in house
The assay is described as above.
Source text: as §1

The target in assay [10] is T10, EGFR (S752-1759del) (Homo sapiens, UniProt P00533, DEL752-759).
T10 construct: made in house
The description is as above.
Source text: as §1

Assay [11] has as its target T11, EGFR (tyrosine 1173 phosphorylation) in A431 cells (Homo sapiens, UniProt P00533).
T11 construct: endogenous in cells; host or cells: A431
The assay can be described thus: EGFR Autophosphorylation Inhibition Assay in Epidermoid Carcinoma Cell Line A431. It counts as cell-based. The settings on record: EGF-induced phosphorylation of tyrosine 1173. The procedure: (§2) Tyrosine 1173 is a major autophosphorylation site resulting from activation of EGFR by epidermal growth factor (EGF). To determine the capacity of a compound to inhibit this phosphorylation activity of EGFR upon itself, the following methodology was used: 4×10^4 A431 cells/well in a 96-well culture plate or 3.6×10^5 A549 cells/well in a 24-well culture plate were cultured overnight at 37° C. in 5% CO2 in low serum culture medium (DMEM supplemented with 0.5% fetal calf serum, 4.500 mg/L glucose and 100 units/ml penicillin-streptomycin). After 16 hours, the cells were pre-incubated in eight serial 3-fold dilutions of test compound (3.3 μM-0.0017 μM) in addition to vehicle control (final concentration on DMSO vehicle was 1%) for two hours. Cells were stimulated by the addition of 5 ng/ml of EGF for five minutes. Cells were then washed with cold phosphate buffered saline (PBS), and incubated for 30 minutes at 4° C. in lysis buffer. Subsequently, the samples were centrifuged at 6000× RCF for 15 minutes, and the level of phosphorylation of EGFR tyrosine 1173 was measured using a sandwich enzyme-linked immunosorbent assay following the manufacturer's recommended protocols (Biosource, Camarillo, Calif.). Total EGFR levels were also measured in the same manner to control for protein level differences. The reported values are those concentrations of compound required to inhibit EGF-induced phosphorylation of tyrosine 1173 by 50%.

Assay [12] has as its target T12, EGFR (tyrosine 1173 phosphorylation) in Lung Cancer Cell Line A459 (Homo sapiens, UniProt P00533).
T12 construct: endogenous in cells
The assay can be described thus: EGFR Autophosphorylation Inhibition Assay in Lung Cancer Cell Line A459. It counts as cell-based. The settings on record: EGF-induced phosphorylation of tyrosine 1173. As to the method:
as §2

T8 sequence (P00533 25-1210 L858R): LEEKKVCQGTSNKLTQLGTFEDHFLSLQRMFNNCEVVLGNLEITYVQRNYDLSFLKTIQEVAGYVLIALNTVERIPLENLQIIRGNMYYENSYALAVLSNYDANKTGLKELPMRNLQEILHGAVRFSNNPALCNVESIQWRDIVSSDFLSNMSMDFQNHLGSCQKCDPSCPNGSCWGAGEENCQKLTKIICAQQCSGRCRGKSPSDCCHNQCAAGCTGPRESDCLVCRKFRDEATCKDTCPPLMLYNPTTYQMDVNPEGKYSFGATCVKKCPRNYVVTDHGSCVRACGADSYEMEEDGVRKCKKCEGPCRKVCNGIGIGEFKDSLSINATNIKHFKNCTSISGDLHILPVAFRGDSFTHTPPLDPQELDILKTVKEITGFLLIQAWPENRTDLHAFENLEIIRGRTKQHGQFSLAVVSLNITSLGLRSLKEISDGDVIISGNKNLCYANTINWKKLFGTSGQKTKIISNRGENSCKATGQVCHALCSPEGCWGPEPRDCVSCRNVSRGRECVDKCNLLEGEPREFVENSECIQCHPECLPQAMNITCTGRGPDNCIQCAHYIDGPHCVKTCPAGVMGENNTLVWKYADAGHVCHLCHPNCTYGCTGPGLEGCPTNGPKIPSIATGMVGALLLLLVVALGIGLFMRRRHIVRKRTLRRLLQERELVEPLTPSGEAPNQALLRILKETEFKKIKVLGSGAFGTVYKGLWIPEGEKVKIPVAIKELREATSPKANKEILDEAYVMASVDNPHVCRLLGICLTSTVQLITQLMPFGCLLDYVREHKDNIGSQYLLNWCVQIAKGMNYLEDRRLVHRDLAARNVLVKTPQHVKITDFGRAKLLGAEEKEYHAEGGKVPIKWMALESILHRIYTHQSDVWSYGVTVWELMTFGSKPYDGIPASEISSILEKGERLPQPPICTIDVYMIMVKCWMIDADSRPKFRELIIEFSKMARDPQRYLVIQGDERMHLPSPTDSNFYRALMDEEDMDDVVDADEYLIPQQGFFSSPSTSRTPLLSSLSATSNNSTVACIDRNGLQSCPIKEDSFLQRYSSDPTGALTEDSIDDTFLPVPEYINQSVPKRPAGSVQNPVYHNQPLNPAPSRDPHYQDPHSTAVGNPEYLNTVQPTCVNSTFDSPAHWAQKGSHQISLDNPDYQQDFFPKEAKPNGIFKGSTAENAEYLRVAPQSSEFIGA
T4 sequence (P00533 25-1210 G719S): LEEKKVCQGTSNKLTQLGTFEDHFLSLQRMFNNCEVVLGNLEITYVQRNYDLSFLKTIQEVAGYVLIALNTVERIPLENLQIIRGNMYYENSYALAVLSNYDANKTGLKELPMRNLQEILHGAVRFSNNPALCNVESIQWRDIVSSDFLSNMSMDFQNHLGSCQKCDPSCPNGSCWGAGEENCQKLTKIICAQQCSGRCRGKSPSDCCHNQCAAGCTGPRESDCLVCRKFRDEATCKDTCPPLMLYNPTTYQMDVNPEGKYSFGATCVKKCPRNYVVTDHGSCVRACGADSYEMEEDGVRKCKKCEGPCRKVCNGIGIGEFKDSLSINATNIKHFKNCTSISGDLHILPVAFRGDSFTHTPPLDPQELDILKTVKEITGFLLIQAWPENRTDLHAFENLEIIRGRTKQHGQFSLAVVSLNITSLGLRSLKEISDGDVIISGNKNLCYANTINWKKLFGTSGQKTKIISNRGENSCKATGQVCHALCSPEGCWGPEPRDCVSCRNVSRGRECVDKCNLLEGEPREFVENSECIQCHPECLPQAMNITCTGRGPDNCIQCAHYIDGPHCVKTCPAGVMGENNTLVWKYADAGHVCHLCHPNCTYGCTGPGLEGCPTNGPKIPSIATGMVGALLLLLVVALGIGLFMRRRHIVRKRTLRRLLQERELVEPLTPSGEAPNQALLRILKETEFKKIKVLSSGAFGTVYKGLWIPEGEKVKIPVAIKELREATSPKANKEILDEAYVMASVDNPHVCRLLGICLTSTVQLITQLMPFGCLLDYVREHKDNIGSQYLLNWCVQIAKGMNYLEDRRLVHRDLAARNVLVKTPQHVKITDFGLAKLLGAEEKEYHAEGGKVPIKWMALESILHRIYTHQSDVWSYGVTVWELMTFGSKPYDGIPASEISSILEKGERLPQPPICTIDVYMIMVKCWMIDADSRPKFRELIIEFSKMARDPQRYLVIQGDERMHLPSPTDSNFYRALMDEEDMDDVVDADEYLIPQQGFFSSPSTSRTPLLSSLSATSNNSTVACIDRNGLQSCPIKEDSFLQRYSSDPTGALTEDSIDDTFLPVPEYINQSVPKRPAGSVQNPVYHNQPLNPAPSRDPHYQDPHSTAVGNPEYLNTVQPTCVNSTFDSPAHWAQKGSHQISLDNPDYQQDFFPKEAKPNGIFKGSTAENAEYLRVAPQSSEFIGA
T6 sequence (P00533 with tags, fused parts or gaps DEL747-750/T751S limits assumed): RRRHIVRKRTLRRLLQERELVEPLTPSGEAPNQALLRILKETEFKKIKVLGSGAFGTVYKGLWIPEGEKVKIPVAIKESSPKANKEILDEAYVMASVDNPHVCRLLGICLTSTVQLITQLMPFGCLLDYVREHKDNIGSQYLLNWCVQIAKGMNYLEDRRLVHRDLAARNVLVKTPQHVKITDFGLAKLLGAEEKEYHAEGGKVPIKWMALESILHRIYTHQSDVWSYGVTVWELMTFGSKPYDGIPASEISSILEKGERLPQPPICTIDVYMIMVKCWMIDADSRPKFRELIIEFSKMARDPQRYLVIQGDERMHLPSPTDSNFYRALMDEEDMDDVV
T12 sequence (P00533 25-1210): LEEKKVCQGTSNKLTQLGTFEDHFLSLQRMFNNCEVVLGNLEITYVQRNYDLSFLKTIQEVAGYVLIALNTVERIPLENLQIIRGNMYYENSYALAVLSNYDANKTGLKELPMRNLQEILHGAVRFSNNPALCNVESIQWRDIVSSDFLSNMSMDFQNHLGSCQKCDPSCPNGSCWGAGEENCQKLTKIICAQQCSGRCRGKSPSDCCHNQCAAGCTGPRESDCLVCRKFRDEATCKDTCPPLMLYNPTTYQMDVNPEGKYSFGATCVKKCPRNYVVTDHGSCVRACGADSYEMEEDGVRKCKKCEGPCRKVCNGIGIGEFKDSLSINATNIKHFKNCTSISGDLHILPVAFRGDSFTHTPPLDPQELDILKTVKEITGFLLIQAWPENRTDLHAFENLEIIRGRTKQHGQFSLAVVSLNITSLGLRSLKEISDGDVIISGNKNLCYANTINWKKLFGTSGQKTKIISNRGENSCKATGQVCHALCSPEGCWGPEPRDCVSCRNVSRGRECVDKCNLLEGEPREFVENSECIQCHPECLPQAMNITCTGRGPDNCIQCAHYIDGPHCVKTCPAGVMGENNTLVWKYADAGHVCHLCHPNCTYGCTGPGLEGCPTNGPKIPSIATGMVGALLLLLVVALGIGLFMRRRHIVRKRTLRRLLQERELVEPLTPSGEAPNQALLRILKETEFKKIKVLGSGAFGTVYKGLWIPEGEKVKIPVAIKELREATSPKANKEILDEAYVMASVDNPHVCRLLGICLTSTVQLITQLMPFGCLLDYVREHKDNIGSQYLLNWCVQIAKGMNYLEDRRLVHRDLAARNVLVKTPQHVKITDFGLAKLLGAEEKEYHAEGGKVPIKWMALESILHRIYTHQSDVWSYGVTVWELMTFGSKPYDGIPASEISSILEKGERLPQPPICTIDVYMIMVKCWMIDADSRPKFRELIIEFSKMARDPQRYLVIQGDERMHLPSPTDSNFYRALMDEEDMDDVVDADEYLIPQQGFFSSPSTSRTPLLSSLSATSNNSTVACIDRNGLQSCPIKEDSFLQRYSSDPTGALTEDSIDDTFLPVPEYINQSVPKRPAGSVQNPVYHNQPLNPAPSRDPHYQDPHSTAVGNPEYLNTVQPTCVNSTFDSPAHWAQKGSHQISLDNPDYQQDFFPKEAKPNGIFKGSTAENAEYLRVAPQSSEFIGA
T11 sequence (P00533 25-1210): as above

In the case of `Oc1ccc(-c2cc3c(Oc4cccc(Br)c4)ncnc3[nH]2)cc1` [Compound E3], the Kd in assay [1], in assay [2], in [3], in [4], in assay [5] and in assay [6] was under 100 nM each time. Besides, the dissociation constant (Kd) in [7], in [8], in [9] and in assay [10] was under 100 nM each time. The IC50 in [11] is under 100 nM; in assay [12], 100 to 1000 nM.
For `COc1cccc(-c2cc3c(Sc4ccccc4)ncnc3[nH]2)c1` [Compound J33], the Kd in assay [1] is under 100 nM. Further, the IC50 fell in the range of 100 to 1000 nM in assay [11] and 1000 to 10000 nM in [12].
Regarding `Clc1ccc(Sc2ncnc3c2[nH]c2ccccc23)cc1Cl` [Compound K5], the dissociation constant Kd in [1], in assay [2], in assay [3], in assay [4], in assay [5] and in assay [6] was under 100 nM in each case. Also, the Kd was under 100 nM in [7], under 100 nM in assay [8], 100 to 1000 nM in assay [9] and under 100 nM in assay [10]. The IC50 in assay [11] and in [12] was 100 to 1000 nM in each case.
The molecule `Clc1cccc(Sc2ncnc3c2[nH]c2ccccc23)c1` [Compound K10] came in with a dissociation constant Kd in assay [1] of under 100 nM. In addition, the IC50 in [11] and in assay [12] was 100 to 1000 nM throughout.
With `Fc1ccc(Sc2ncnc3c2[nH]c2ccccc23)cc1` [Compound K14], the Kd in [1] was under 100 nM. In addition, the 50% inhibitory concentration (IC50) in assay [11] and in [12] was 100 to 1000 nM each time.
Consider `Oc1ccc(-c2cc3c(Sc4ccccc4)ncnc3[nH]2)cc1` [Compound L2], for which the Kd in assay [1], in [2], in [3], in [4], in [5] and in [6] was under 100 nM throughout. Also, the dissociation constant Kd in assay [7], in assay [8], in assay [9] and in assay [10] was under 100 nM throughout. For the same molecule, the figures for the concentration for half-maximal inhibition (IC50) in [11] and in assay [12] were under 100 nM and 100 to 1000 nM, respectively.
For `Oc1ccc(-c2cc3c(Sc4cccc(F)c4)ncnc3[nH]2)cc1` [Compound L3], the Kd in assay [1] is under 100 nM. The IC50 in assay [11] is under 100 nM; in assay [12] it was 1000 to 10000 nM.
On to `Cc1cccc(Sc2ncnc3[nH]c(-c4ccc(O)cc4)cc23)c1` [Compound L5], for which the Kd in [1] was under 100 nM. Also, the concentration for half-maximal inhibition (IC50) is under 100 nM in assay [11] and 1000 to 10000 nM in assay [12].
In assay [1], `Oc1ccc(-c2cc3c(Sc4ccc(Cl)cc4)ncnc3[nH]2)cc1` [Compound L7] had a Kd of under 100 nM. Moreover, the figures for the half-maximal inhibitory concentration (IC50) in [11] and in assay [12] were 100 to 1000 nM and 1000 to 10000 nM, respectively.
`Oc1ccc(-c2cc3c(Sc4ccc(F)cc4)ncnc3[nH]2)cc1` [Compound L8] registered a Kd in assay [1] of under 100 nM. Also, the IC50 in assay [11] was under 100 nM; in assay [12], 1000 to 10000 nM.
In [1], `Cc1ccc(Sc2ncnc3[nH]c(-c4ccc(O)cc4)cc23)cc1` [Compound L9] had a dissociation constant (Kd) of under 100 nM. Besides, the IC50 in assay [11] is 100 to 1000 nM; in assay [12], 1000 to 10000 nM.
